Data set [1] relates to HT-29 cells. Briefly: Viability / proliferation assay in HT-29 cells (cell counting). As to conditions: for Residual viability: remaining surviving cells.
Description: We then evaluated the antiproliferative potential of the compounds by carrying out viability assays in HT-29, a CRC-derived cell line selected as it expresses substantial amounts of PPARγ1 with respect to the α and β/δ subtypes.
After treatment, the cells were washed with PBS, trypsinized and collected in culture medium. Cells were counted by means of a Burker’s hemocytometer and by automated cell counter (Roche Applied, Penzberg, Germany)[60].
Proliferation assay carried out on HT-29 cells treated or not with the indicated compounds at different concentrations ranging from 1 to 10 µM for 48 hs. HT-29 cells exposed or not to these compounds were harvested, washed with PBS, trypsinized and collected in culture medium. Cell counting was performed by means of a Burker’s hemocytometer. Three counts for each well were made and the mean value and the standard deviation were calculated.
The target in data set [2] is T1, PPARγ1 (Homo sapiens, UniProt P37231).
T1 construct: a fixed and higher amount of an exogenous, full length PPARγ1; expressed in transfected cells
T1 sequence (P37231 1-477 isoform P37231-2): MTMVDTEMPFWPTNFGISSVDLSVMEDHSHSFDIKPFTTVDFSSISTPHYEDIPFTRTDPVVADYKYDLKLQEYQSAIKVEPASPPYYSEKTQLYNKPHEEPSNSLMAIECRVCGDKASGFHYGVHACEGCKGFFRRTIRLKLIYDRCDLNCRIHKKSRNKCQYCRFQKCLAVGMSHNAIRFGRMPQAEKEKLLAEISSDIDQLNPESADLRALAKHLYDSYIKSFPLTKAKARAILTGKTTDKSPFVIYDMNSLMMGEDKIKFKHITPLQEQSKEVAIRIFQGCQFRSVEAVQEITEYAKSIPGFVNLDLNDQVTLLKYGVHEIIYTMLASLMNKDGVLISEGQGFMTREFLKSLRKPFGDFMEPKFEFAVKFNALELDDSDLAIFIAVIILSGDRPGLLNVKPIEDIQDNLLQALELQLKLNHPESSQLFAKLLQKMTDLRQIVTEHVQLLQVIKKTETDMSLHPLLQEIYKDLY
Briefly: PPRE-Luciferase reporter transactivation in HEK293 cells expressing PPARγ1. Conditions: for Efficacy: PPARγ transactivation with respect to the full agonist RGZ taken as 100%; for EC50: PPARγ transactivation, PPRE-Luc reporter, HEK293 expressing PPARγ1, 24 hs treatment. It is filed as cell-based. The procedure: These cells were selected as a model system because they express low levels of the endogenous PPAR subtypes and a fixed and higher amount of an exogenous, full length PPARγ1; the differences in luciferase activity can, thus, be referred to PPARγ1 and to the different ligands used. Twenty-four hours after transfection, cells were treated for additional 24 hs with increasing doses of each compound (Table 2).
HEK293 cells that stably express an exogenous Flag-tagged PPARγ1 from a transfected PCDNA-3 vector carrying a complete PPARγ cDNA were used for transfection experiments. PPRE-Luc plasmid contains a luciferase reporter gene whose transcription is driven by the herpes simplex thymidine kinase (TK) promoter including three copies of the PPRE designed on the sequence of Acyl-CoA oxidase gene. […] The day before transfection, HEK293 stably expressing FLAG-PPARγ1 were plated in 12-well plates to reach 70% confluence. After 24 hs, growth medium was removed and substitute with OPTI-MEM, in absence of serum and antibiotics, and cells were transfected with the luciferase reporter gene (PPRE-Luc) using lipofectamine 2000 reagent as described. […] Transfection assays were performed in triplicate and the resulting transcriptional activities measured by luciferase assay. The values were normalized by β-galactosidase assay and the average value for each triplicate was calculated.
A general note: In a reporter assay the amount or activity of a reporter protein is the signal.

Data set [3] has as its system HT-29 cells. Put plainly: Cell cycle analysis by flow cytometry (propidium iodide) in HT-29 cells. It is filed as cell-based, human. As to conditions: 1 to 25 µM, 48 hs, FACS. The procedure:
We then investigated the cell cycle changes underlying the growth inhibition caused by (R,S)-3, (S)-3 and (R,S)-7 treatment. To this goal, HT-29 cells were cultured in proliferating medium for 24 hs and exposed for additional 48 hs to a medium containing different concentrations of the three compounds.
(§1) Data are means ± SD of two independent experiments. *p ≤ 0.05, **p ≤ 0.01 compared to the control. (B) Proliferating HT-29 cells were treated or not for 48 hs with 10 µM of the indicated compounds. Protein extracts were prepared and assessed for p21^waf1/cip1 expression in Western blotting analysis. β-Actin was used for protein load normalization. The bar graphs are the mean ± SD of three independent experiments. **p ≤ 0.01 compared to the control.
(§2) HT-29 cells were plated at similar confluency and synchronized by a 48 h serum deprivation in 0.1% FBS. […] At same time, another aliquot of cells was allowed to grow again in the complete medium containing 0,1% DMSO for the same times and was used as control. After treatment, DNA cell content was evaluated by FACS analysis as previously described. Evaluation of apoptotic cells was performed by staining cell treated or not with 10 μM of the indicated compounds for 48 hs with Annexin5-V-Fitc and propidium iodide. All flow cytometry results were analyzed by FACSuite Software.

The test system of data set [4] is β-catenin/TCF pathway. Put plainly: Top-FLASH reporter luciferase assay in LiCl-induced HEK-293 cells. It is filed as cell-based. Conditions: HEK-293, Top-FLASH, 20 mM LiCl plus 1 µM compound, 24 hs, relative to LiCl alone. The method, then:
(§3) Proliferating HT-29 cells were treated for 48 hs with 10 µM of the indicated compounds. Specific antibodies against cyclin D1 (A), c-Myc (B), β-catenin (C) and PPARγ (D) respectively, were used in Western blotting analysis. An anti-β-actin antibody was used as a control for protein loading. The graphs of (A) and (B) represent the means ± SD of three independent experiments. **p ≤ 0.01, ***p ≤ 0.005 compared to the control. The bar graphs of (C,D) are the means ± SD of three independent experiments. *p ≤ 0.05 compared to the control. […] Luciferase activity is reported as fold induction after normalization to β-galactosidase activity used as control of transfection efficiency. The graph represents the mean ± SD of two independent experiments performed in triplicate. *p ≤ 0.05 compared to LiCl exposure.
To definitely confirm that (R,S)-3 and (S)-3 negatively affect c-Myc and cyclin D1 protein levels through down-regulation of their own gene transcription, we performed the TOP-flash reporter luciferase assay in LiCl-induced HEK-293 cells. […]
The Top-FLASH reporter plasmid containing three copies of TCF binding sites was transiently transfected into HEK293 cells with Lipofectamine 2000 (Invitrogen, Carlsbad, CA, USA) in 24-well plates. […] Luciferase activity was measured after 24 h of compounds treatment and normalized to β-galactosidase. […]

The subject of data set [5] is p21^waf1/cip1. Put plainly: Western blotting of p21waf1/cip1 in RKO cells stably transfected with PPARG1. Format: cell-based, human. From the text:
(§4) RKO cells were taken as control for assessing possible effects due to other PPAR receptors expressed at low levels in this cell or to PPARγ-independent effects elicited by GW9662, as reported.
(§5) Figure 4 PPARγ-dependent antiproliferative effect in CRC-derived RKO cells. Western blotting analysis of p21^waf1/cip1 expression in total protein extracts from CRC-derived RKO cells (A) and its derived clone overexpressing an ectopic PPARγ1 (B) using an anti-p21^waf1/cip1 antibody. An anti-β-actin antibody was used as a control for protein loading. The bar graphs represent the mean ± SD of […] of at least 3 independent experiments. *p ≤ 0.05, **p ≤ 0.01 compared to the control.
(§6) Total extracts from treated and untreated cells were obtained by lysis in Ripa buffer (150 mM NaCl, 50 mM Tris-HCl, pH 7.6, 10 mM EDTA, 1% NP-40) containing also a protease inhibitors cocktail and then centrifugated at 17,000 RCF for 10 min, at 4 °C. Total proteins in the supernatant were quantified and 80 μg of each sample were loaded on SDS-PAGE. Western blotting assays were carried out as previously reported.
(In western blotting, separated proteins are transferred to a membrane and probed.)

In data set [6] the test system is caspase 3. Put plainly: Western blotting of caspase 3 in HT-29 cells. Format: cell-based, human. As to conditions: 10 µM, 48 hs. The method, then:
(§7) (B) Early (Ann+/PI−) and late (Ann+/PI+) apoptotic cell populations were evaluated and reported in the graphic representation. The bar graphs are the means ± SD of three independent experiments. *p ≤ 0.05, **p ≤ 0.01, ***p ≤ 0.005 compared to the control. […] An anti-β-actin antibody was used as a control for protein loading. Significance is indicated as *p ≤ 0.05 compared to only vehicle. […] It is listed because a value is printed with its label.
as §6

Data set [7] deals with β-catenin. Briefly: Western blotting of β-catenin in HT-29 cells. As to conditions: 10 µM, 48 hs. Format: cell-based, human. The method, then:
as §3
(§8) Indeed, cyclin D1 and c-Myc are target genes[38],[39] and, for these reasons, we evaluated c-Myc levels in untreated and treated HT-29 cells. […] Along this reasoning, we investigated β-catenin levels in the same experimental conditions. […]
(§9) Total extracts from treated and untreated cells were obtained by lysis in Ripa buffer (150 mM NaCl, 50 mM Tris-HCl, pH 7.6, 10 mM EDTA, 1% NP-40) containing also a protease inhibitors cocktail and then centrifugated at 17,000 RCF for 10 min, at 4 °C. Total proteins in the supernatant were quantified and 80 μg of each sample were loaded on SDS-PAGE. […]

Data set [8] deals with p21^waf1/cip1. Put plainly: Western blotting of p21waf1/cip1 in HT-29 cells. It is filed as cell-based, human. Conditions: 10 µM, 48 hs. The procedure:
as §1
(§10) To better characterize the growth inhibition elicited by (R,S)-3, (S)-3 and (R,S)-7, we examined changes in the expression of proteins involved in cell cycle control (Figs 1B and 2A). […] The results paralleled those of the corresponding proteins and all together correlated with the flow cytometric data obtained in the same experimental conditions as reported in Fig. 1.
as §6

Data set [9] has as its system HT-29 cells. Put plainly: Annexin V-FITC / propidium iodide apoptosis flow cytometry in HT-29 cells. Format: cell-based, human. Conditions: 10 µM, 48 hs. The procedure: as §7, §2
For orientation: A flow cytometer gives signals particle by particle.

The test system of data set [10] is c-Myc. Put plainly: Western blotting of c-Myc in HT-29 cells. It is filed as cell-based, human. As to conditions: 10 µM, 48 hs. The method, then: as §3, §8, §9
Data set [11] has as its system cyclin D1. Put plainly: Western blotting of cyclin D1 in HT-29 cells. Conditions: 10 µM, 48 hs. It is filed as cell-based, human. The method, then: as §10
as §3, with “The graph represents the mean ± SD of two independent experiments performed in triplicate. *p ≤ 0.05 compared to LiCl exposure.” left out
as §9

For data set [12], the system named is p21^waf1/cip1. Briefly: Western blotting of p21waf1/cip1 in parental RKO cells (no endogenous PPARG). Format: cell-based, human. As to conditions: 10 µM, 48 hs.
Description: as §4, §5, §6

Setting [13] is: read-out: Proliferation IC50, HT-29 cells, concentration range 1 to 25 µM.
Where [14] appears, read: Homo sapiens, HT-29, read-out: Proliferation IC50.

Where “and” joins values, the source holds several entries; their conditions need not be identical. Equal values may be shown once. Read-outs that look alike come from different tables or passages of the source.

In turn, `O=C(O)[C@@H](CCc1ccccc1)Oc1ccc(Cl)cc1` [(R)-1] registered a Residual viability in [1] (HT-29 cells) of 77 ± 3.1%. In data set [1] (setting [13]), the IC50 came to 19.7 ± 1.7 µM. For the same molecule, in [2], the Efficacy is 45 ± 1.3% and a half-maximal response (EC50) required 0.64 ± 0.06 µM.

On to `O=C(O)[C@H](CCCc1ccc(Cl)cc1)Oc1ccc(Cl)cc1` [(S)-3], for which the Cell cycle changes entry in [3] is given as “significant increase of cells in the sub G0/G1 phase”. Further, the “Luciferase activity remaining on co-treatment with LiCl” value in data set [4] is “about 60%”. Moreover, the p21waf1/cip1 expression entry in data set [5] (RKO clone expressing exogenous PPARγ1, 10 µM, 48 hs) was “induced accumulation”; in data set [12] it was “no p21^waf1/cip1 variations”. Besides, the “Caspase 3 activation (precursor reduced, cleaved form increased)” value in data set [6] is “strongest effect”. Also, the β-catenin protein level entry in data set [7] is reported as “reduction”. Further, in [8], the p21waf1/cip1 protein expression result is “robust increase”. The Apoptosis induction entry in data set [9] is “stimulated apoptosis”. Also, in data set [10], the c-Myc protein level entry is listed as “reduction”. Also, the “cyclin D1 protein level” value in data set [11] is recorded as “reduction more evident”. In data set [1] (HT-29 cells), the Residual viability is recorded as 31 ± 1.3%. The IC50 in data set [1] (setting [14]) amounted to 4.8 ± 0.35 µM. Moreover, in [2], the Efficacy was 55% and 55 ± 1.2%. For the same molecule, in data set [2], the EC50 turned out to be 0.4 ± 0.05 µM.

Turning to `O=C(O)C(CCCCc1ccccc1)Oc1ccc(Cl)cc1` (racemic) [(R,S)-4], in data set [1] (HT-29 cells), the Residual viability amounted to 60 ± 0.5%. The IC50 in data set [1] (setting [13]) was 10.1 ± 0.4 µM. In data set [2], this molecule returned an Efficacy of 60 ± 1.1% and an EC50 of 0.35 ± 0.07 µM.

In the case of `CN(CCOc1ccc(CC2SC(=O)NC2=O)cc1)c1ccccn1` (centres unmarked) [RGZ, rosiglitazone, reference compound], the “Luciferase activity remaining on co-treatment with LiCl” value in data set [4] is recorded as 80%. In data set [8], the p21waf1/cip1 protein expression result is recorded as “slight”. Moreover, the Apoptosis induction result in data set [9] is “stimulated apoptosis”. For the same molecule, the “cyclin D1 protein level” value in [11] was “reduction”. The IC50 in data set [1] (setting [14]) turned out to be 9.8 ± 0.4 µM.

In data set [1] (HT-29 cells), `O=C(O)C(CCCc1ccccc1)Oc1ccc(Cl)cc1` (racemic) [(R,S)-2] gave a Residual viability of 70 ± 2.5%. Moreover, the IC50 in data set [1] (setting [13]) came out at 12.1 ± 1.2 µM. Also, in data set [2], the Efficacy worked out at 48 ± 2.1% and the EC50 was determined as 0.54 ± 0.1 µM.

For the molecule `O=C(Nc1ccccc1)c1cc([N+](=O)[O-])ccc1Cl` [GW9662, reference compound], the “Effect of the antagonist on compound-induced p21waf1/cip1 accumulation” value in [5] (RKO clone expressing PPARγ1, co-treatment with (R,S)-3, (S)-3 or (R,S)-7) is “reverted the effect”.

One may read the EC50 as the concentration at which the effect is half-maximal.

The record behind these values is PMC6443668, “Chiral phenoxyacetic acid analogues inhibit colon cancer cell proliferation acting as PPARγ partial agonists” (Scientific Reports, 2019).
